These results are taken from patent US7994209B2, “3-phenoxymethylpyrrolidine compounds” (Theravance, Inc., priority 2009, dated 2011).

SMILES strings stand for the structures. Marks after values point to notes of the source that are not given here.

The target of assay [1] is hSERT (Homo sapiens, UniProt P31645). Kind of assay: fluorescence-based serotonin reuptake inhibition assay (Tsuruda et al. 2010; data indicated by an asterisk). The conditions noted are these: fluorescence-based assay (values with asterisk); for IC50: read-out: SERT pIC50 (converted). It counts as cell-based. Set-up: expressed in transfected cells; host or cells: HEK-293.

For assay [2], the target named is hNET (Homo sapiens, UniProt P23975). Nature of the assay: fluorescence-based norepinephrine reuptake inhibition assay (Tsuruda et al. 2010; data indicated by an asterisk). The conditions noted are these: norepinephrine reuptake inhibition, fluorescence-based assay (values with asterisk); read-out: NET pIC50 (converted). The class given is cell-based. Set-up: expressed in transfected cells; host or cells: HEK-293.
Chain of hNET (P23975 whole entry): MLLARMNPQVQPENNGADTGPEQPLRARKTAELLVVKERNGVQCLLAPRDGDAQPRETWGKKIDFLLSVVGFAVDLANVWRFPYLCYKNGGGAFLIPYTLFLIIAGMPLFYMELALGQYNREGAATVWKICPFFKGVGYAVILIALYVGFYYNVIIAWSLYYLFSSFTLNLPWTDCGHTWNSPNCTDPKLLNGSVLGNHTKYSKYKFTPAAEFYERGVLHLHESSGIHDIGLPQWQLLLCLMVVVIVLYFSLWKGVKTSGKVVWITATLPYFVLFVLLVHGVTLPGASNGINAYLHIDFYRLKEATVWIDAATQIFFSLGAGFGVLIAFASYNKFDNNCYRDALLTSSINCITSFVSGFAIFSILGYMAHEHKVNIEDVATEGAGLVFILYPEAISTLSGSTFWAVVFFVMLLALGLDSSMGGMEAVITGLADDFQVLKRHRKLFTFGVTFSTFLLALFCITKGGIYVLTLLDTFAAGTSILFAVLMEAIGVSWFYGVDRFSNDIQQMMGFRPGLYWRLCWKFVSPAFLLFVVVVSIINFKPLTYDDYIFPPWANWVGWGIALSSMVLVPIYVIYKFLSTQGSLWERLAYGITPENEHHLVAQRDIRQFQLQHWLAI

Chain of hSERT (P31645 whole entry): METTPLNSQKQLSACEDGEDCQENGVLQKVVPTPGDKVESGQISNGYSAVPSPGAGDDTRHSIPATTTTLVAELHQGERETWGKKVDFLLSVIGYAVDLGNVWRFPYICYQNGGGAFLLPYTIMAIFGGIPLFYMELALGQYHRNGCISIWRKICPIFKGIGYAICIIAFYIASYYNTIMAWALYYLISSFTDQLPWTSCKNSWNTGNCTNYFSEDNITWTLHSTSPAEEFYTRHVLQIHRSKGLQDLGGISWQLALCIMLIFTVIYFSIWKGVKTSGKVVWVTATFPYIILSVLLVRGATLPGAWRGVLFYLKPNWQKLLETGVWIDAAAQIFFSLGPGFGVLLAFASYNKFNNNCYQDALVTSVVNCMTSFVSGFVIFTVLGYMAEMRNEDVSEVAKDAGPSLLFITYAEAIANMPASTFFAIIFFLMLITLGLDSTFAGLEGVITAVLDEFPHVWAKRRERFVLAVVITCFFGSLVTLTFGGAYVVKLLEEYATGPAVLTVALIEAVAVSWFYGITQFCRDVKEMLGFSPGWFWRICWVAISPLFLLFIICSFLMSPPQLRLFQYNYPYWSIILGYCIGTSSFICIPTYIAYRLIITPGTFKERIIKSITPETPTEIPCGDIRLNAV

Take `Cc1cc(O[C@H](CC(C)C)[C@H]2CCNC2)ccc1Cl` [Example 10-76, (S)-3-[(R)-1-(4-Chloro-3-methylphenoxy)-3-methylbutyl]pyrrolidine]: the IC50 in assay [1] was at most 10 nM; in assay [2] it was at most 100 nM.
Take `CC[C@@H](Oc1cc(F)cc(Cl)c1)[C@H]1CCNC1` [Example 2-11, (S)-3-[(R)-1-(3-Chloro-5-fluorophenoxy)propyl]pyrrolidine]: the IC50 in assay [1] was at most 100 nM; in assay [2], at most 10 nM.
Consider `CC(C)C[C@H](Oc1c(F)ccc(Cl)c1Cl)[C@H]1CCNC1` [Example 10-65, (S)-3-[(S)-1-(2,3-Dichloro-6-fluorophenoxy)-3-methylbutyl]pyrrolidine], for which the IC50 in assay [1] and in assay [2] was at most 10 nM throughout.
As for `Clc1ccc(OC(C2CCCC2)C2CCNC2)c(Cl)c1` (single isomer, unassigned) [Example 18-5, 3-[Cyclopentyl-(2,4-dichlorophenoxy)methyl]pyrrolidine], in assay [1], the “SERT pIC50” value was “≧8.0*”. Also, the IC50 in assay [2] was at most 10 nM.
In the case of `CC(C)[C@@H](Oc1cccc2ccccc12)[C@H]1CCNC1` [Example 14-6, (S)-3-[(R)-2-Methyl-1-(naphthalen-1-yloxy)propyl]pyrrolidine], the IC50 in assay [1] and in assay [2] was at most 10 nM each time.
With `CC[C@@H](Oc1c(F)ccc(OC)c1Cl)[C@H]1CCNC1` [Example 2-45, (S)-3-[(R)-1-(2-Chloro-6-fluoro-3-methoxyphenoxy)propyl]pyrrolidine], the IC50 in assay [1] and in assay [2] was at most 10 nM in each case.
Turning to `Clc1ccc(OC(C2CCCC2)C2CCNC2)c(Cl)c1` (single isomer, unassigned) [Example 18-4, 3-[Cyclopentyl-(2,4-dichlorophenoxy)methyl]pyrrolidine], the IC50 in assay [1] was at most 10 nM; in assay [2], at most 100 nM.
As for `CCC[C@@H](Oc1cc(F)cc(Cl)c1)[C@H]1CCNC1` [Example 4-10, (S)-3-[(R)-1-(3-Chloro-5-fluorophenoxy)butyl]pyrrolidine], the IC50 is at most 100 nM in assay [1] and at most 10 nM in assay [2].
The corresponding values for `CCC[C@H](Oc1c(F)cc(Cl)cc1F)[C@H]1CCNC1` [Example 4-53, (S)-3-[(S)-1-(4-Chloro-2,6-difluorophenoxy)butyl]pyrrolidine] are at most 10 nM and at most 10 nM.
With `Cc1cc(Cl)ccc1OC(C1CCCC1)C1CCNC1` (centres unmarked) [Example 18-7, 3-[(4-Chloro-2-methylphenoxy)cyclopentylmethyl]pyrrolidine], the IC50 in assay [1] was at most 10 nM; in assay [2], at most 100 nM.
`CC[C@H](Oc1c(F)cc(Cl)cc1Cl)[C@H]1CCNC1` [Example 2-35, (S)-3-[(S)-1-(2,4-Dichloro-6-fluorophenoxy)propyl]pyrrolidine]: the IC50 in assay [1] and in assay [2] was at most 10 nM each time.
On to `COc1ccc(F)c(O[C@H](C(C)C)[C@@H]2CCNC2)c1Cl` [Example 6-37, (R)-3-[(R)-1-(2-Chloro-6-fluoro-3-methoxyphenoxy)-2-methylpropyl]pyrrolidine], for which the IC50 in assay [1] and in assay [2] was at most 10 nM throughout.
With `COc1cc(Cl)cc(O[C@@H](C2CC2)[C@H]2CCNC2)c1` [Example 16-100, (S)-3-[(S)-(3-Chloro-5-methoxyphenoxy)cyclopropylmethyl]pyrrolidine], the IC50 in assay [1] is at most 100 nM; in assay [2], at most 10 nM.
For the molecule `CC(C)[C@@H](Oc1ccc(Cl)cc1Cl)[C@@H]1CCNC1` [Example 6-23, (R)-3-[(R)-1-(2,4-Dichlorophenoxy)-2-methylpropyl]pyrrolidine], the IC50 in assay [1] is at most 10 nM; in assay [2], at most 100 nM.
For `CC(C)C[C@H](Oc1cccc2ccccc12)[C@H]1CCNC1` [Example 14-8, (S)-3-[(S)-3-Methyl-1-(naphthalen-1-yloxy)butyl]pyrrolidine], the IC50 in assay [1] and in assay [2] was at most 10 nM in each case.
For the molecule `CCC[C@H](Oc1c(F)cc(Cl)cc1Cl)[C@H]1CCNC1` [Example 4-40, (S)-3-[(S)-1-(2,4-Dichloro-6-fluorophenoxy)butyl]pyrrolidine], the IC50 in assay [1] and in assay [2] was at most 10 nM each time.
For the molecule `FC(F)(F)c1c(Cl)cccc1OC(C1CCCC1)C1CCNC1` (single isomer, unassigned) [Example 18-2, 3-[(3-Chloro-2-trifluoromethylphenoxy)cyclopentylmethyl]pyrrolidine], the figures for the IC50 in assay [1] and in assay [2] were at most 10 nM and at most 100 nM, respectively.
Take `CC(C)[C@@H](Oc1ccc(Cl)c(Cl)c1F)[C@@H]1CCNC1` [Example 6-9, (R)-3-[(R)-1-(3,4-Dichloro-2-fluorophenoxy)-2-methylpropyl]pyrrolidine]: the IC50 in assay [1] was at most 10 nM; in assay [2], at most 100 nM.
Take `CC[C@H](Oc1cc(F)cc(Cl)c1)[C@H]1CCNC1` [Example 2-10, (S)-3-[(S)-1-(3-Chloro-5-fluorophenoxy)propyl]pyrrolidine]: the IC50 in assay [1] was at most 100 nM; in assay [2] it was at most 10 nM.
With `Cc1cc(Cl)cc(Cl)c1O[C@@H](C(C)C)[C@H]1CCNC1` [Example 6-33, (S)-3-[(S)-1-(2,4-Dichloro-6-methylphenoxy)-2-methylpropyl]pyrrolidine], the IC50 in assay [1] and in assay [2] was at most 10 nM in each case.
With `CC[C@H](Oc1ccc(C)c(F)c1F)[C@H]1CCNC1` [Example 2-51, (S)-3-[(S)-1-(2,3-Difluoro-4-methylphenoxy)propyl]pyrrolidine], the IC50 in assay [1] and in assay [2] was at most 10 nM throughout.
As to `CC(C)[C@H](Oc1cc(F)cc(Cl)c1)[C@H]1CCNC1` [Example 6-59, (S)-3-[(S)-1-(3-Chloro-5-fluorophenoxy)-2-methylpropyl]pyrrolidine], the IC50 was at most 100 nM in assay [1] and at most 10 nM in assay [2].
Consider `CC(C)C[C@H](Oc1c(F)ccc(Cl)c1F)[C@H]1CCNC1` [Example 10-60, (S)-3-[(S)-1-(3-Chloro-2,6-difluorophenoxy)-3-methylbutyl]pyrrolidine], for which the IC50 in assay [1] and in assay [2] was at most 10 nM throughout.
As to `CCC[C@@H](Oc1cccc(Cl)c1F)[C@H]1CCNC1` [Example 4-46, (S)-3-[(R)-1-(3-Chloro-2-fluorophenoxy)butyl]pyrrolidine], the results for the IC50 in assay [1] and in assay [2] were at most 100 nM and at most 10 nM, respectively.
As for `CC(C)C[C@@H](Oc1ccc(Cl)cc1F)[C@H]1CCNC1` [Example 10-40, (S)-3-[(R)-1-(4-Chloro-2-fluorophenoxy)-3-methylbutyl]pyrrolidine], the values for the IC50 in assay [1] and in assay [2] were at most 100 nM and at most 10 nM, respectively.
The corresponding values for `Fc1cc(Cl)cc(O[C@@H](C2CC2)[C@H]2CCNC2)c1Cl` [Example 16-57, (S)-3-[(S)cyclopropyl-(2,5-dichloro-3-fluorophenoxy)methyl]pyrrolidine] are at most 100 nM and at most 100 nM.
As for `CC(C)C[C@H](Oc1ccc(Cl)c(Cl)c1)[C@H]1CCNC1` [Example 10-74, (S)-3-[(S)-1-(3,4-Dichlorophenoxy)-3-methylbutyl]pyrrolidine], the IC50 in assay [1] and in assay [2] was at most 10 nM in each case.
For the molecule `Cc1cc(O[C@@H](CC(C)C)[C@H]2CCNC2)ccc1Cl` [Example 10-75, (S)-3-[(S)-1-(4-Chloro-3-methylphenoxy)-3-methylbutyl]pyrrolidine], the IC50 in assay [1] and in assay [2] was at most 10 nM throughout.
